Measured values as given in ChEMBL document CHEMBL1201862, “PubChem BioAssay data set” (2004).
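Tested at 5 concentrations; 48 h exposure; 96-well plates; endpoints linearly interpolated, else capped at highest concentration. Abbreviation: GI50, concentration required for 50% inhibition of growth.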 Active and inactive are the calls of the source. Rule as the data show it: active = GI50 up to about 1.1 µM and inactive = higher.

Columns and labels:
Test in all cases: DTP human tumour cell line panel, 48 h
A498 = test system: A498
BT-549 = test system: BT-549
CAKI-1 = test system: CAKI-1
CCRF-CEM = test system: CCRF-CEM
COLO 205 = test system: COLO 205
DU-145 = test system: DU-145
HCC 2998 = test system: HCC 2998
HCT-116 = test system: HCT-116
HCT-15 = test system: HCT-15
HL-60 = test system: HL-60
HOP-62 = test system: HOP-62
HOP-92 = test system: HOP-92
HT-29 = test system: HT-29
Hs-578T = test system: Hs-578T
IGROV-1 = test system: IGROV-1
K562 = test system: K562
KM12 = test system: KM12
LOX IMVI = test system: LOX IMVI
M14 = test system: M14
MCF7 = test system: MCF7
MDA-MB-435 = test system: MDA-MB-435
MDA-N = test system: MDA-N
MOLT-4 = test system: MOLT-4
Malme-3M = test system: Malme-3M
NCI-H226 = test system: NCI-H226
NCI-H23 = test system: NCI-H23
NCI-H460 = test system: NCI-H460
NCI/ADR-RES = test system: NCI/ADR-RES
OVCAR-3 = test system: OVCAR-3
OVCAR-4 = test system: OVCAR-4
OVCAR-5 = test system: OVCAR-5
OVCAR-8 = test system: OVCAR-8
PC-3 = test system: PC-3
RPMI-8226 = test system: RPMI-8226
RXF 393 = test system: RXF 393
SF-295 = test system: SF-295
SK-MEL-28 = test system: SK-MEL-28
SK-MEL-2 = test system: SK-MEL-2
SK-MEL-5 = test system: SK-MEL-5
SK-OV-3 = test system: SK-OV-3
SN12C = test system: SN12C
SNB-19 = test system: SNB-19
SNB-75 = test system: SNB-75
SR = test system: SR
SW-620 = test system: SW-620
T47D = test system: T47D
TK-10 = test system: TK-10
U-251 = test system: U-251
UACC-257 = test system: UACC-257
UACC-62 = test system: UACC-62
UO-31 = test system: UO-31
786-0 = test system: 786-0
A549 = test system: A549
ACHN = test system: ACHN
EKVX = test system: EKVX
NCI-H522 = test system: NCI-H522
SF-268 = test system: SF-268
SF-539 = test system: SF-539

SMILES: COC1OC(CS(=O)(=O)O)C(O)C(O)C1O (configuration not stated)
- GI50 (A498): > 100 µM (inactive)
- GI50 (BT-549): > 100 µM (inactive)
- GI50 (CAKI-1): > 100 µM (inactive)
- GI50 (CCRF-CEM): > 100 µM (inactive)
- GI50 (COLO 205): > 100 µM (inactive)
- GI50 (DU-145): > 100 µM (inactive)
- GI50 (HCC 2998): > 100 µM (inactive)
- GI50 (HCT-116): > 100 µM (inactive)
- GI50 (HCT-15): > 100 µM
- GI50 (HL-60): > 100 µM (inactive)
- GI50 (HOP-62): > 100 µM (inactive)
- GI50 (HOP-92): > 100 µM (inactive)
- GI50 (HT-29): > 100 µM (inactive)
- GI50 (Hs-578T): > 100 µM (inactive)
- GI50 (IGROV-1): > 100 µM (inactive)
- GI50 (K562): > 100 µM (inactive)
- GI50 (KM12): > 100 µM (inactive)
- GI50 (LOX IMVI): > 100 µM (inactive)
- GI50 (M14): > 100 µM (inactive)
- GI50 (MCF7): > 100 µM (inactive)
- GI50 (MDA-MB-435): > 100 µM (inactive)
- GI50 (MDA-N): > 100 µM (inactive)
- GI50 (MOLT-4): > 100 µM (inactive)
- GI50 (Malme-3M): > 100 µM (inactive)
- GI50 (NCI-H226): > 100 µM (inactive)
- GI50 (NCI-H23): > 100 µM (inactive)
- GI50 (NCI-H460): > 100 µM (inactive)
- GI50 (NCI/ADR-RES): > 100 µM (inactive)
- GI50 (OVCAR-3): > 100 µM (inactive)
- GI50 (OVCAR-4): > 100 µM (inactive)
- GI50 (OVCAR-5): > 100 µM (inactive)
- GI50 (OVCAR-8): > 100 µM (inactive)
- GI50 (PC-3): > 100 µM (inactive)
- GI50 (RPMI-8226): > 100 µM (inactive)
- GI50 (RXF 393): > 100 µM (inactive)
- GI50 (SF-295): > 100 µM (inactive)
- GI50 (SK-MEL-28): > 100 µM (inactive)
- GI50 (SK-MEL-2): > 100 µM (inactive)
- GI50 (SK-MEL-5): > 100 µM (inactive)
- GI50 (SK-OV-3): > 100 µM (inactive)
- GI50 (SN12C): > 100 µM (inactive)
- GI50 (SNB-19): > 100 µM (inactive)
- GI50 (SNB-75): > 100 µM (inactive)
- GI50 (SR): > 100 µM (inactive)
- GI50 (SW-620): > 100 µM (inactive)
- GI50 (T47D): > 100 µM (inactive)
- GI50 (TK-10): > 100 µM (inactive)
- GI50 (U-251): > 100 µM (inactive)
- GI50 (UACC-257): > 100 µM (inactive)
- GI50 (UACC-62): > 100 µM (inactive)
- GI50 (UO-31): > 100 µM (inactive)

SMILES: COC(=O)CSc1cc(Cl)c(C)cc1S(=O)(=O)Nc1n[nH]c(N)n1
- GI50 (786-0): > 10 µM (inactive)
- GI50 (A498): > 10 µM (inactive)
- GI50 (A549): > 10 µM (inactive)
- GI50 (ACHN): > 10 µM (inactive)
- GI50 (BT-549): > 10 µM (inactive)
- GI50 (CAKI-1): > 10 µM (inactive)
- GI50 (CCRF-CEM): > 10 µM (inactive)
- GI50 (COLO 205): > 10 µM (inactive)
- GI50 (DU-145): > 10 µM (inactive)
- GI50 (EKVX): > 10 µM (inactive)
- GI50 (HCC 2998): > 10 µM (inactive)
- GI50 (HCT-116): > 10 µM (inactive)
- GI50 (HCT-15): > 10 µM
- GI50 (HL-60): > 10 µM (inactive)
- GI50 (HOP-62): > 10 µM (inactive)
- GI50 (HOP-92): > 10 µM (inactive)
- GI50 (HT-29): > 10 µM (inactive)
- GI50 (Hs-578T): > 10 µM (inactive)
- GI50 (IGROV-1): > 10 µM (inactive)
- GI50 (K562): > 10 µM (inactive)
- GI50 (KM12): > 10 µM (inactive)
- GI50 (LOX IMVI): > 10 µM (inactive)
- GI50 (M14): > 10 µM (inactive)
- GI50 (MCF7): > 10 µM (inactive)
- GI50 (MDA-N): > 10 µM (inactive)
- GI50 (MOLT-4): > 10 µM (inactive)
- GI50 (Malme-3M): > 10 µM (inactive)
- GI50 (NCI-H226): > 10 µM (inactive)
- GI50 (NCI-H23): > 10 µM (inactive)
- GI50 (NCI-H460): > 10 µM (inactive)
- GI50 (NCI-H522): > 10 µM (inactive)
- GI50 (NCI/ADR-RES): > 10 µM (inactive)
- GI50 (OVCAR-3): > 10 µM (inactive)
- GI50 (OVCAR-4): > 10 µM (inactive)
- GI50 (OVCAR-5): > 10 µM (inactive)
- GI50 (OVCAR-8): > 10 µM (inactive)
- GI50 (PC-3): > 10 µM (inactive)
- GI50 (RPMI-8226): > 10 µM (inactive)
- GI50 (RXF 393): > 10 µM (inactive)
- GI50 (SF-268): > 10 µM (inactive)
- GI50 (SF-295): > 10 µM (inactive)
- GI50 (SF-539): > 10 µM (inactive)
- GI50 (SK-MEL-28): > 10 µM (inactive)
- GI50 (SK-MEL-2): > 10 µM (inactive)
- GI50 (SK-MEL-5): > 10 µM (inactive)
- GI50 (SK-OV-3): > 10 µM (inactive)
- GI50 (SN12C): > 10 µM (inactive)
- GI50 (SNB-19): > 10 µM (inactive)
- GI50 (SNB-75): > 10 µM (inactive)
- GI50 (SR): > 10 µM (inactive)
- GI50 (SW-620): > 10 µM (inactive)
- GI50 (T47D): > 10 µM (inactive)
- GI50 (TK-10): > 10 µM (inactive)
- GI50 (U-251): > 10 µM (inactive)
- GI50 (UACC-257): > 10 µM (inactive)
- GI50 (UO-31): > 10 µM (inactive)
